Experimental data as given in PMC12298351, “Novel 3,19-(N-Phenyl-3-(4-fluorophenyl)-pyrazole) Acetal of Andrographolide Promotes Cell Cycle Arrest and Apoptosis in MDA-MB-231 Breast Cancer Cells” (Pharmaceuticals, 2025).

Assays:
HCT-116 = assay type: cell-based; settings: HCT-116, Colon
786-0 = settings: 786-0, Renal
HCC-2998 = settings: HCC-2998, Colon
T-47D = settings: for GI50 / Total growth inhibition (TGI): Breast; for CC50: read-out: 50% lethal concentration (LC50), Breast
SF-539 = settings: SF-539, CNS; for CC50: read-out: 50% lethal concentration (LC50)
HS 578T = settings: for GI50 / Total growth inhibition (TGI): Breast; for CC50: read-out: 50% lethal concentration (LC50), Breast
SF-295 = settings: SF-295, CNS; for CC50: read-out: 50% lethal concentration (LC50)
MALME-3M = settings: Melanoma
MDA-MB-435 = settings: MDA-MB-435, Melanoma; for CC50: read-out: 50% lethal concentration (LC50)
NCI-H23 = settings: for Total growth inhibition (TGI) / CC50: NCI-H23, Non-Small Cell Lung; for GI50: NCI-H23, Non-Small-Cell Lung; for CC50: read-out: 50% lethal concentration (LC50)
SK-MEL-2 = settings: SK-MEL-2, Melanoma
SK-MEL-5 = settings: SK-MEL-5, Melanoma; for CC50: read-out: 50% lethal concentration (LC50)
SNB-19 = assay type: cell-based; settings: SNB-19, CNS
PC-3 = settings: PC-3, Prostate; for CC50: read-out: 50% lethal concentration (LC50)
OVCAR-5 = settings: OVCAR-5, Ovarian; for CC50: read-out: 50% lethal concentration (LC50)
MDA-MB-231 = settings: for GI50: MDA-MB-231, Breast; for Total growth inhibition (TGI) / CC50: MDA-MB-231/ATCC, Breast; for CC50: read-out: 50% lethal concentration (LC50)
SNB-75 = settings: SNB-75, CNS; for CC50: read-out: 50% lethal concentration (LC50)
NCI-H226 = settings: for Total growth inhibition (TGI) / CC50: NCI-H226, Non-Small Cell Lung; for GI50: NCI-H226, Non-Small-Cell Lung; for CC50: read-out: 50% lethal concentration (LC50)
BT-549 = assay type: cell-based; settings: BT-549, Breast
HCT-15 = settings: HCT-15, Colon; for CC50: read-out: 50% lethal concentration (LC50)
[1] = DPPH radical scavenging assay; settings: 25 µM test compound, 0.1 mM DPPH, acetonitrile, 30 min
Procedure, shortened: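 Compounds at 25 µM in acetonitrile mixed 1:2 with 0.1 mM DPPH in acetonitrile, kept 30 min in the dark at room temperature. Absorbance read at 517 nm; % scavenging = (Ac − As)/Ac × 100, Ac being DPPH blank. Ascorbic acid positive control.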

NCI-H522 = settings: for Total growth inhibition (TGI) / CC50: NCI-H522, Non-Small Cell Lung; for GI50: NCI-H522, Non-Small-Cell Lung; for CC50: read-out: 50% lethal concentration (LC50)
COLO 205 = settings: COLO 205, Colon
HT29 = settings: HT29, Colon; for CC50: read-out: 50% lethal concentration (LC50)
HL-60(TB) = settings: for GI50 / Total growth inhibition (TGI): Leukemia; for CC50: read-out: 50% lethal concentration (LC50), Leukemia
HOP-92 = settings: for GI50: HOP-92, Non-Small-Cell Lung
OVCAR-4 = assay type: cell-based; settings: OVCAR-4, Ovarian
MOLT-4 = settings: MOLT-4, Leukemia; for CC50: read-out: 50% lethal concentration (LC50)
[2] = read-out: 50% lethal concentration (LC50)

With C=C1CCC2C3(C)COC(c4cn(-c5ccccc5)nc4-c4cccc(Br)c4)OC3CCC2(C)C1CC=C1C(=O)OCC1O (centres unmarked) [1e] the GI50 (HCT-116) was 1.24 µM, the Total growth inhibition (TGI) (HCT-116) was 2.75 µM and the GI50 (786-0) was 2.59 µM. For the same compound, the CC50 (786-0; [2]) was > 100 µM, the GI50 (HCC-2998) was 1.72 µM and the Total growth inhibition (TGI) (HCC-2998) was 3.33 µM. The GI50 (T-47D) was 2.29 µM, the Total growth inhibition (TGI) (T-47D) was 7.26 µM and the CC50 (T-47D) was > 100 µM. It also gave a GI50 (SF-539) of 1.78 µM, a Total growth inhibition (TGI) (SF-539) of 3.2 µM and a CC50 (SF-539) of 5.74 µM. The GI50 (HS 578T) was 1.94 µM, the Total growth inhibition (TGI) (HS 578T) was 5.19 µM and the CC50 (HS 578T) was > 100 µM. The GI50 (SF-295) was 1.36 µM, the Total growth inhibition (TGI) (SF-295) was 2.68 µM and the CC50 (SF-295) was 5.3 µM. It also gave a GI50 (MALME-3M) of 1.87 µM, a Total growth inhibition (TGI) (MALME-3M) of 3.45 µM and a GI50 (MDA-MB-435) of 1.72 µM. For the same compound, the Total growth inhibition (TGI) (MDA-MB-435) was 3.6 µM, the CC50 (MDA-MB-435) was 7.51 µM and the Total growth inhibition (TGI) (NCI-H23) was 4.07 µM. It also gave a GI50 (NCI-H23) of 1.9 µM, a CC50 (NCI-H23) of 8.74 µM and a GI50 (SK-MEL-2) of 1.78 µM. For the same compound, the Total growth inhibition (TGI) (SK-MEL-2) was 3.38 µM, the GI50 (SK-MEL-5) was 1.54 µM and the Total growth inhibition (TGI) (SK-MEL-5) was 2.88 µM. The CC50 (SK-MEL-5) was 5.39 µM, the GI50 (SNB-19) was 2.17 µM and the Total growth inhibition (TGI) (SNB-19) was 5.24 µM. For the same compound, the CC50 (SNB-19; [2]) was 17.2 µM, the GI50 (PC-3) was 2.29 µM and the CC50 (PC-3) was > 100 µM. The GI50 (OVCAR-5) was 1.85 µM, the Total growth inhibition (TGI) (OVCAR-5) was 4.35 µM and the CC50 (OVCAR-5) was 47.7 µM. For the same compound, the GI50 (MDA-MB-231) was 1.68 µM, the Total growth inhibition (TGI) (MDA-MB-231) was 3.23 µM and the CC50 (MDA-MB-231) was 6.23 µM. The GI50 (SNB-75) was 1.57 µM, the Total growth inhibition (TGI) (SNB-75) was 5.32 µM and the CC50 (SNB-75) was 22.9 µM. For the same compound, the Total growth inhibition (TGI) (NCI-H226) was 3.43 µM, the GI50 (NCI-H226) was 1.75 µM and the CC50 (NCI-H226) was 6.71 µM. The GI50 (BT-549) was 1.46 µM, the Total growth inhibition (TGI) (BT-549) was 2.99 µM and the GI50 (HCT-15) was 1.6 µM. The Total growth inhibition (TGI) (HCT-15) was 3.55 µM, the CC50 (HCT-15) was 7.85 µM and the “% DPPH radical scavenging activity” value [1] was 58.75%. The Total growth inhibition (TGI) (NCI-H522) was 2.9 µM, the GI50 (NCI-H522) was 1.5 µM and the CC50 (NCI-H522) was 5.62 µM. The GI50 (COLO 205) was 2.09 µM, the Total growth inhibition (TGI) (COLO 205) was 4.36 µM and the GI50 (HT29) was 1.66 µM. For the same compound, the Total growth inhibition (TGI) (HT29) was 3.46 µM, the CC50 (HT29) was 7.23 µM and the GI50 (HL-60(TB)) was 1.17 µM. The Total growth inhibition (TGI) (HL-60(TB)) was 5.17 µM, the CC50 (HL-60(TB)) was > 100 µM and the Total growth inhibition (TGI) (HOP-92; HOP-92, Non-Small Cell Lung) was 3.41 µM. For the same compound, the GI50 (HOP-92) was 1.75 µM, the GI50 (OVCAR-4) was 2.49 µM and the CC50 (OVCAR-4; [2]) was > 100 µM. The GI50 (MOLT-4) was 0.91 µM, the Total growth inhibition (TGI) (MOLT-4) was 4.24 µM and the CC50 (MOLT-4) was > 100 µM.
Compound C=C1CCC2C3(C)COC(c4cn(-c5ccccc5)nc4-c4ccc(C)cc4)OC3CCC2(C)C1CC=C1C(=O)OCC1O (centres unmarked) [1i] has a GI50 (HCT-116) of 3.91 µM, a Total growth inhibition (TGI) (HCT-116) of 1.52 µM and a GI50 (786-0) of 1.77 µM. For the same compound, the Total growth inhibition (TGI) (786-0) was 3.69 µM, the GI50 (HCC-2998) was 1.63 µM and the Total growth inhibition (TGI) (HCC-2998) was 3.06 µM. The GI50 (T-47D) was 1.14 µM, the Total growth inhibition (TGI) (T-47D) was 3.55 µM and the CC50 (T-47D) was > 100 µM. It also gave a GI50 (SF-539) of 1.79 µM, a Total growth inhibition (TGI) (SF-539) of 3.19 µM and a CC50 (SF-539) of 5.7 µM. It also gave a GI50 (HS 578T) of 1.85 µM, a Total growth inhibition (TGI) (HS 578T) of 3.41 µM and a CC50 (HS 578T) of 6.28 µM. For the same compound, the GI50 (SF-295) was 1.58 µM, the Total growth inhibition (TGI) (SF-295) was 2.96 µM and the CC50 (SF-295) was 5.54 µM. It also gave a GI50 (MALME-3M) of 2.46 µM, a Total growth inhibition (TGI) (MALME-3M) of 4.28 µM and a GI50 (MDA-MB-435) of 1.61 µM. It also gave a Total growth inhibition (TGI) (MDA-MB-435) of 3.31 µM, a CC50 (MDA-MB-435) of 6.79 µM and a Total growth inhibition (TGI) (NCI-H23) of 3.5 µM. The GI50 (NCI-H23) was 1.76 µM, the CC50 (NCI-H23) was 6.96 µM and the GI50 (SK-MEL-2) was 1.79 µM. The Total growth inhibition (TGI) (SK-MEL-2) was 3.28 µM, the GI50 (SK-MEL-5) was 1.59 µM and the Total growth inhibition (TGI) (SK-MEL-5) was 2.96 µM. For the same compound, the CC50 (SK-MEL-5) was 5.49 µM, the GI50 (SNB-19) was 1.36 µM and the GI50 (PC-3) was 1.92 µM. For the same compound, the CC50 (PC-3) was > 100 µM, the GI50 (OVCAR-5) was 1.93 µM and the Total growth inhibition (TGI) (OVCAR-5) was 4.59 µM. For the same compound, the CC50 (OVCAR-5) was 40.5 µM, the GI50 (MDA-MB-231) was 1.7 µM and the Total growth inhibition (TGI) (MDA-MB-231) was 3.28 µM. For the same compound, the CC50 (MDA-MB-231) was 6.33 µM, the GI50 (SNB-75) was 1.71 µM and the Total growth inhibition (TGI) (SNB-75) was 2.99 µM. The CC50 (SNB-75) was 6.55 µM, the Total growth inhibition (TGI) (NCI-H226) was 2.95 µM and the GI50 (NCI-H226) was 1.47 µM. The CC50 (NCI-H226) was 5.92 µM, the GI50 (BT-549) was 1.2 µM and the Total growth inhibition (TGI) (BT-549) was 3.02 µM. The GI50 (HCT-15) was 1.59 µM, the Total growth inhibition (TGI) (HCT-15) was 3.19 µM and the CC50 (HCT-15) was 6.38 µM. The “% DPPH radical scavenging activity” value [1] was 56.31%, the Total growth inhibition (TGI) (NCI-H522) was 3.46 µM and the GI50 (NCI-H522) was 1.75 µM. It also gave a CC50 (NCI-H522) of 6.86 µM, a GI50 (COLO 205) of 1.97 µM and a Total growth inhibition (TGI) (COLO 205) of 4.5 µM. The GI50 (HT29) was 1.9 µM, the Total growth inhibition (TGI) (HT29) was 4.58 µM and the CC50 (HT29) was > 100 µM. The GI50 (HL-60(TB)) was 2.17 µM, the Total growth inhibition (TGI) (HL-60(TB)) was > 100 µM and the CC50 (HL-60(TB)) was > 100 µM. For the same compound, the Total growth inhibition (TGI) (HOP-92; HOP-92, Non-Small Cell Lung) was 3.14 µM, the GI50 (HOP-92) was 1.43 µM and the CC50 (HOP-92; read-out: 50% lethal concentration (LC50), HOP-92, Non-Small Cell Lung) was 6.88 µM. The GI50 (OVCAR-4) was 1.92 µM, the Total growth inhibition (TGI) (OVCAR-4) was 4.27 µM and the GI50 (MOLT-4) was 2.11 µM. The Total growth inhibition (TGI) (MOLT-4) was > 100 µM and the CC50 (MOLT-4) was > 100 µM.
